Measurements as given in patent publication US5480888A, “Inhibitor for restenosis after percutaneous coronary arterioplasty” (Daiichi Pharmaceutical Co., Ltd., priority 1992, dated 1996).

Test system: post PTCA vessels
Assay: Clinical test: restenosis after elective PTCA in patients with angina pectoris (coronary angiography, video-densitometry)
Type: in vivo
Description: 29 patients suffering from angina pectoris who received elective PTCA (43 sites ) orally took 2-phenyl-1,2-benzoisoselenazol-3(2H )-one (hereinafterreferred to as compound A) after meal with a daily dose of 200 mg, twice a day, 100 mg for each time, starting from three days prior to the PTCA operation over 3 months after operation (treated group ). […] The stenosed degree was measured by video-densitometry (Reiber JHC et al., Circulation 1985; 71:280-288), and inhibition of restenosis was evaluated on the basis of the findings. […]
In both of the treated and control groups, calcium antagonists such as nifedipine and diltiazem, and antiarteriosclerotic agents such as elastase were concurrently administered as required. As a result, there was no significant difference according to the .chi.^2 test between the two groups with regard to the use of concomitant compounds and other patient characteristics including the age, the site of the lesion, etc.

O=c1c2ccccc2[se]n1-c1ccccc1 [compound A, 2-phenyl-1,2-benzoisoselenazol-3(2H)-one]
onset rate of restenosis based on the number of patients (6 months after operation, treated group, 29 patients, control 38.2%): 18.6%
inhibition of restenosis in the location of operation (compared to the control group, Table 2): remarkable inhibition of restenosis
Stenosed Degree Before PTCA (treated group, 43 sites, 100 mg twice a day orally from three days prior to PTCA, control 87 +/- 11): 89 +/- 10
Stenosed Degree 3 Months after PTCA (treated group, 43 sites, 100 mg twice a day orally, control 78 +/- 39, *P<0.05 vs Placebo, Chi square analysis): 54 +/- 31
Stenosed Degree After PTCA (treated group, 43 sites, immediately after PTCA, 100 mg twice a day orally, control 32 +/- 23): 35 +/- 28
